For three molecules, inhibition results are on record in patent US12145936B1, “7-Imino-5-(1H-indol-3-yl)-1,3-substituted-7,8-dihdropyrimido[4,5-d]pyrimidine-2,4(1H,3H)-dione as anti-inflammatory agents” (KING FAISAL UNIVERSITY, priority 2023, dated 2024).

Molecules are shown by their SMILES.

This assay addresses T1, human COX-2 enzyme (Homo sapiens, UniProt P35354).
T1 construct: purchased
T1 sequence (P35354 18-604): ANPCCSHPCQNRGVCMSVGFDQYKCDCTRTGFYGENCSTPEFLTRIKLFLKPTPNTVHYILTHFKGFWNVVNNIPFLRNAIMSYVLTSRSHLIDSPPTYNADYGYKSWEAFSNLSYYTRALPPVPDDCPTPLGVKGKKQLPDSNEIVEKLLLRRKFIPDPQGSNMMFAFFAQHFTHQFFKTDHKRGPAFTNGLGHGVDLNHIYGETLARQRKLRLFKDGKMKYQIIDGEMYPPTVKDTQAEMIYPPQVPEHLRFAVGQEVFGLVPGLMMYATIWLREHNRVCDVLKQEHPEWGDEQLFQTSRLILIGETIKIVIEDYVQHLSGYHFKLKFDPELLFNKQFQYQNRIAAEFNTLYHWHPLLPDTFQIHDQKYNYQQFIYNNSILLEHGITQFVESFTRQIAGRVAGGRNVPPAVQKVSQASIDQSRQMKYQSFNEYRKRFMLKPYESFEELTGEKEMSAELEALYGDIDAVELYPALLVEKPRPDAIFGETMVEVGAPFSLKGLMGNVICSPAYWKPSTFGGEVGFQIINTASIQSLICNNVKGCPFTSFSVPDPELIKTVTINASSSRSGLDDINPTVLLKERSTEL
The assay is described as follows: Cyclooxygenases (COX-2) enzyme inhibition assay, COX (human) Inhibitor Screening Assay Kit with prostaglandin ELISA readout. It is filed as biochemical. The note with it: 10 μM compound, in vitro, ELISA plate incubation 18 hours, read-out: % Inhibition (COX-2) Mean ± SEM. The procedure:
According to manufacturer instructions, a COX inhibition assay was performed using COX (human) Inhibitor Screening Assay Kit for the compounds 7-imino-5-(1H-indol-3-yl)-1,3-substituted-7,8-dihydropyrimido[4,5-d]pyrimidine-2,4(1H,3H)-dione derivatives (4a-c). All reagents and buffers were prepared in ultrapure water. All stock solutions of the compounds and the positive controls (Indomethacin and Celecoxib) were dissolved in DMSO. In each inhibitor sample tube, 160 μL reaction buffer, 10 μL of heme, 10 μL of diluted COX-2 enzyme, and 10 μL of the diluted inhibitor was added to get a final concentration of 100 μM. […] 10 μL of the vehicle control (DMSO) was added to the background tubes, and COX enzyme's 100% initial activity was obtained. All reaction tubes were incubated for 10 minutes at 37° C. Following this incubation, 10 μL of the substrate, arachidonic acid (AA), was added to all test tubes, mixed, and further incubated for precisely 30 seconds at 37° C. Then, 30 μL of SnCl2 solution was added to each reaction tube to stop the enzyme catalysis. All reaction tubes were removed from the incubator, vortexed, and incubated again for 5 min at room temperature. Reaction tubes were stored at 4° C. to quantify the prostaglandin formation by competitive enzyme-linked immunosorbent assay (ELISA). ELISA standards were prepared in test tubes to perform the competitive ELISA, and dilutions were prepared with the ELISA buffer. The standards, COX reaction dilutions, and background samples were serially diluted. […] Blank (to assess the background absorbance caused by Ellman's reagent) and total activity (TA) (to determine the enzymatic activity of the AChE-linked tracer) wells were left empty, 100 μL and 50 μL of the ELISA buffer were added to the nonspecific binding (NSB) and maximum binding (B0), respectively. […] Finally, the plate reading was done at a wavelength of 405 nm with a Microplate reader from BioTek (by Agilent), and data were collected using Gen5™ (by Agilent) analysis software. […]
(ELISA stands for enzyme-linked immunosorbent assay.)

One may read the inhibition as the relative decrease from the control value, in per cent. As to `N=c1nc(-c2c[nH]c3ccccc23)c2c(=O)[nH]c(=O)[nH]c2[nH]1` [Compound 4a, 7-Imino-5-(1H-indol-3-yl)-7,8-dihydropyrimido[4,5-d]pyrimidine-2,4(1H,3H)-dione], the inhibition at 10 µM stood at 23 ± 5.1%.
As for `N=c1nc(-c2c[nH]c3ccccc23)c2c(=O)[nH]c(=S)[nH]c2[nH]1` [Compound 4b, 7-Imino-5-(1H-indol-3-yl)-2-thioxo-2,3,7,8-tetrahydropyrimido[4,5-d]pyrimidin-4(1H)-one], the inhibition at 10 µM was determined as 88 ± 2.91%.
Take `Cn1c(=O)c2c(-c3c[nH]c4ccccc34)nc(=N)[nH]c2n(C)c1=O` [Compound 4c, 7-Imino-5-(1H-indol-3-yl)-1,3-dimethyl-7,8-dihydropyrimido[4,5-d]pyrimidine-2,4(1H,3H)-dione]: the inhibition at 10 µM was 98 ± 1.53%.
